Each block holds one compound with its values, some of them ahead of it.
Tests used:
Assay type in all cases: biochemical
[1] = biological target: T1, porcine pancreatic elastase (Sus scrofa, UniProt P00772); test: Inhibition of elastase activity (AAAPVN substrate); conditions: 100 µg/mL (extract in glycerol; EGCG standard at 100 µg/mL)
T1 construct: purchased Sigma-Aldrich
Procedure: The method using porcine pancreatic elastase (PE - E.C.3.4.21.36; Sigma-Aldrich) was used for the study, which was dissolved in distilled water to prepare a stock solution with a concentration of 3.33 mg/mL. The substrate […] (AAAPVN; Sigma-Aldrich) was dissolved in 1.6 mM Tris-HCl buffer (pH 8.0). The extract of Example 1 dissolved in glycerol (concentrations of 5-100 µg/mL) was incubated with the enzyme for 15 minutes before adding the substrate to start the reaction. The final reaction mixture in the well of the 96-well plate (total volume 200 µL) contained buffer, 0.8 mM of AAAPVN, 1 µg/mL of elastase and 25 µL of extract at the appropriate concentration. Epigallocatechin gallate (EGCG; Supelco) at the concentration of 100 µg/mL was used as a standard. Negative controls were performed using water. Absorbance values were measured immediately after substrate addition and then after 20 minutes at wavelength of λ=410 nm.

[2] = tested on: collagenase from Clostridium haemolyticum; test: Inhibition of collagenase activity (FALGPA substrate); conditions: 100 µg/mL (extract in glycerol; EGCG standard at 100 µg/mL)
Procedure: The enzymatic method for the determination of collagenase (EC 3.4.24.3) using FALGPA (N-(3-[2-furyl]acryloyl)-Leu-Gly-Pro-Ala) as substrate for collagenase, which was dissolved in 50 mM Tricine buffer (pH 7.5) at an initial concentration of 0.8 U/mL, was used for the study. FALGPA was dissolved in Tricine buffer to 2 mM. Various concentrations were prepared from the lyophilised extract of Example 1 by dissolving in glycerol and incubating with the enzyme for 15 minutes before adding the substrate to start the reaction. The final reaction mixture (150 µL) contained Tricine buffer, 0.8 mM of FALGPA, 0.1 U of collagenase and the extract at appropriate concentration. Epigallocatechin gallate (EGCG; Supelco) at the concentration of 100 µg/mL was used as a standard. The absorbance at wavelength of λ=345 nm was measured immediately after substrate addition and then continuously for 20 minutes.

soybean lipoxygenase = biological target: T2, soybean lipoxygenase (Glycine max, UniProt P08170); test: Anti-inflammatory properties, lipoxygenase inhibition; conditions: positive control, concentration not given
T2 construct: purchased Sigma-Aldrich Chemie GmbH, Steinheim, Germany
T2 sequence (P08170 1-839): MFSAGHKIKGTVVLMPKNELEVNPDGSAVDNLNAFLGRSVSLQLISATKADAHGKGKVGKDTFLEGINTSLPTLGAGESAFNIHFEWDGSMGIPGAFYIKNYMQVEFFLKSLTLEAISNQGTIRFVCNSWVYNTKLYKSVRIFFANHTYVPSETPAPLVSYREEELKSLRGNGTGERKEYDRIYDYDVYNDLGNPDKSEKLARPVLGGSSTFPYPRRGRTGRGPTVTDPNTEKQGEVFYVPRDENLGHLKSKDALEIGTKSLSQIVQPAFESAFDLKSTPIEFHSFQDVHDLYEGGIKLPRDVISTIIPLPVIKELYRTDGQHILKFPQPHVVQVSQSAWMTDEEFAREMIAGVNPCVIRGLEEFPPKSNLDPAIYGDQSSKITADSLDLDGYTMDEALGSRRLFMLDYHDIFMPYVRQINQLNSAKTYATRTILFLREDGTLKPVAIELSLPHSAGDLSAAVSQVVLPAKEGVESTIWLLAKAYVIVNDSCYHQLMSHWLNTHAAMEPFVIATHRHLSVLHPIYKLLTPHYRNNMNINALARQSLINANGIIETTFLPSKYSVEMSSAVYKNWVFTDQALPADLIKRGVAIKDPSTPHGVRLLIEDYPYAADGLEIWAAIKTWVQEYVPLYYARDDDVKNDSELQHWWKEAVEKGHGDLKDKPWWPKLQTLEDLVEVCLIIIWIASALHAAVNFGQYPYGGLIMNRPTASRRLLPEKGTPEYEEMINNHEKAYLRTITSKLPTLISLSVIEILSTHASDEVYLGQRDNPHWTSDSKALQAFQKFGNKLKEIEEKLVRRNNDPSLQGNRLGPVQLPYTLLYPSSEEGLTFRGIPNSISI
Procedure: The study of anti-inflammatory activity of the extract of Example 1 was assessed on the basis of lipoxygenase inhibition using a spectrophotometric method in 96-well plates. For this purpose, 100 µL of various concentrations of extract solution in potassium phosphate buffer (pH = 8.5), 50 µL of soybean lipoxygenase solution (LOX; 167 U/mL; Sigma-Aldrich Chemie GmbH, Steinheim, Germany) in potassium phosphate buffer (pH = 8.5), and finally 50 µL of linoleic acid solution (LA; 134 µM; Sigma-Aldrich Chemie GmbH, Steinheim, Germany) were added to the wells. Changes in absorbance at 234 nm were then measured for a period of 25 minutes with intervals of 30 seconds. Indomethacin (Sigma-Aldrich) was used as a positive control. The activity of the extract was calculated as the percentage of LOX enzyme activity (% of activity) in relation to the maximal activity (negative control - solution without studied extract) after subtracting the absorbance of the extract at 234 nm in all cases. Absorbance values at the 10th minute of the reaction were used for the calculations.

fungal tyrosinase = test: Inhibition of fungal tyrosinase activity (L-DOPA substrate); conditions: standard at 100 µL/mL
Procedure: The tyrosinase (EC 1.14.18.1, 25 KU, fungal tyrosinase, Sigma-Aldrich) inhibitory effect was measured using L-3,4-dihydroxyphenylalanine (L-DOPA, Supelco) as a substrate. To perform it, various concentrations of the studied extract (20 µL), tyrosinase solution (200 U/mL, 40 µL) and phosphate buffer (100 µL, 50 mM, pH 6.5) were applied to a 96-well plate, and then incubated for 15 minutes at 25°C. The reaction was started with the addition of L-DOPA (40 µL) and incubated for a further 15 minutes, after which the absorbance was measured at wavelength of λ=475 nm compared to the control without the inhibitor. In the control sample, representing 100% of enzyme activity, phosphate buffer was added instead of the extract. Tyrosinase inhibitory activity was determined by comparing the enzyme activity in samples with and without the assessed inhibitor. Kojic acid (Supelco) at a concentration of 100 µL/mL was used as a standard.

T1 sequence (P00772 27-266): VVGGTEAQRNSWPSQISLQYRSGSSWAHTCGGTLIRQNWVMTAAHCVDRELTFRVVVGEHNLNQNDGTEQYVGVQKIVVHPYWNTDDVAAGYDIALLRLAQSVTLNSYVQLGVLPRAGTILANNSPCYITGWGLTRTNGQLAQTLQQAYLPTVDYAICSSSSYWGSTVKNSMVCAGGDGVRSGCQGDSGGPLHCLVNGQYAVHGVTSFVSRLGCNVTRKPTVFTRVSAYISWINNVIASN

Compound: O=C(O[C@@H]1Cc2c(O)cc(O)cc2O[C@@H]1c1cc(O)c(O)c(O)c1)c1cc(O)c(O)c(O)c1 [EGCG, Epigallocatechin gallate]
inhibition at 100 µg/mL [1]: 92.2%
Collagenase inhibition (%) [2]: 84.45%

Inhibition of LOX activity [%] (soybean lipoxygenase): 99.80%
Compound: COc1ccc2c(c1)c(CC(=O)O)c(C)n2C(=O)c1ccc(Cl)cc1 [Indomethacin]

Tyrosinase inhibition [%] (fungal tyrosinase): 61.17%
Compound: O=c1cc(CO)occ1O [kojic acid]
